{
  "source": "patent US11857544B2",
  "about": "“Composition or method including (t)ew-7197 for treating or preventing corneal endothelial diseases” (THE DOSHISHA, priority 2017, dated 2024)",
  "key": {"[1]": {"system": "immortalized human corneal endothelial cells from a Fuchs' endothelial corneal dystrophy patient (iFECD)", "test": "Suppression of TGF-β-induced corneal endothelial cell disorder, observed under a phase contrast microscope", "format": "cell-based", "conditions": "for effect of suppressing corneal endothelial cell disorder: Example 1, iFECD, 24 h pretreatment then 10 ng/ml TGF-β 24 h; for effect of suppressing corneal endothelial cell disorders: Example 2, iFECD + TGF-β", "experimental": "The medium was removed from a culture dish culturing immortalized human corneal endothelial cells from a Fuchs' endothelial corneal dystrophy patient (iFECD), and 1×PBS(-) preheated to 37° C. was added and washed. This was repeated twice. 1×PBS(-) was added again and the medium was incubated for 5 minutes at 37° C. (5% CO2). After removing the PBS(-), 0.05% Trypsin-EDTA (Nacalai Tesque, 32778-34) was added and incubated for 5 minutes at 37° C. (5% CO2). The medium was then suspended and centrifuged for 3 minutes at 1500 rpm to retrieve cells. DMEM (Nacalai Tesque, 08456-36)+10% FBS (Biowest, S1820-500)+1% P/S (Nacalai Tesque, 26252-94) was used as the medium. The immortalized human corneal endothelial cells from a Fuchs' endothelial corneal dystrophy patient (iFECD) were seeded on a 12-well plate at a ratio of 8.0×10^4 cells per well and cultured for 24 hours at 37° C. (5% CO2). DMEM+10% FBS+1% P/S was used as the medium. After 24 hours, the medium was exchanged and cultured again for 24 hours. DMEM+2% FBS+1% P/S was used as the medium. After 24 hours, the medium was removed. 10 ng/ml of Transforming Growth Factor-132 Human recombinant (WAKO, 200-19911) was added, and the medium was cultured for 24 hours. DMEM+2% FBS+1% P/S was used as the medium. After 24 hours, the cell morphology and apoptosis were observed under a phase contrast microscope. After […] were seeded on a 12-well plate and cultured for 24 hours, the medium was removed. SB431542 (WAKO, 192-16541) and EW-7197 (Selleck Chemicals, 57530) were added so that the final concentration would each be 0.1, 0.3, 1, 3, or 10 μM, and the medium was cultured for 24 hours. DMEM+2% FBS+1% P/S was used as the medium. After 24 hours, the medium was removed. 10 ng/ml of Transforming Growth Factor-132 Human recombinant (WAKO, 200-19911) as well as SB431542 and EW-7197 were added so that the final concentration would each be 0.1, 0.3, 1, 3, or 10 μM, and the medium was cultured for 24 hours. DMEM+2% FBS+1% P/S was used as the medium. After 24 hours, the cell morphology and apoptosis were observed under a phase contrast microscope. After […] were seeded on a 12-well plate at a ratio of 7.0×10^4 cells and cultured for 24 hours, the medium was removed. EW-7197 (Selleck Chemicals, 57530) was added so that the final concentration would be 0.001, 0.003, 0.01, 0.03, 0.1, 0.3, 1, 3, 10, or 30 μM, and the medium was cultured for 24 hours. DMEM+2% FBS+1% P/S was used as the medium. After 24 hours, the medium was removed. 10 ng/ml of Transforming Growth Factor-132 Human recombinant (WAKO, 200-19911) and EW-7197 were added so that the final concentration would be 0.001, 0.003, 0.01, 0.03, 0.1, 0.3, 1, 3, 10, or 30 μM, and the medium was cultured for 24 hours. DMEM+2% FBS+1% P/S was used as the medium. After 24 hours, the cell morphology and apoptosis were observed under a phase contrast microscope."}, "fibronectin": {"system": "fibronectin", "test": "Area of fibronectin expression by immunostaining, Col8a2 knock-in mice (Example 6)", "format": "in vivo", "experimental": "5 μL of 0.02% (about 0.5 mM) EW-7197 eye drop, 0.1% (about 2.5 mM) EW-7197 eye drop, or a base agent (DMSO containing phosphate buffer) was administered as an eye drop to both eyes of 4-month-old alpha 2 collagen 8 gene (Col8a2) knock-in mice 4 times a day for 12 weeks. A surfactant was added to the base agent as needed. Those skilled in the art can use an appropriate and suitable surfactant (Kenji Motose (1984). “Tenganzai” [Eye drops] Nanzando; International Pharmaceutical Excipients Council Japan (2016). “Iyakuhin Tenkabutsu Jiten” [Pharmaceutical Excipient Encyclopedia] Yakuji Nippo, Limited). The corneal endothelial cell density was measured using a specular microscope KS3M (Konan Medical, Inc.) at before eye drops, and 3, 6, 9, and 12 weeks after eye drops. Mice were euthanized by intraperitoneally administering an excessive amount (200 mg/kg body weight or greater) of anesthetic injection Somnopentyl (Kyoritsu Seiyaku Corporation) 12 weeks after injection. After confirming cardiac arrest, both eye balls were harvested. The harvested eye balls were incised to prepare a corneal fragment. Immunostaining of fibronectin was performed. The immunostaining method was the following. Image-Pro (Nippon Roper K.K.) was used to analyze the area of fibronectin expression.\nAfter immobilizing a mouse corneal fragment for 10 minutes at room temperature in 4% paraformaldehyde, 0.5% TritonX-100 was added and allowed to permeate for 5 minutes. 1% bovine serum albumin (BSA) was added and the fragment was incubated for 1 hour at room temperature. The corneal fragment was then immersed in a primary antibody solution and reacted overnight at 4° C. 1:250 diluent of fibronectin polyclonal antibody (abcam) was used as the primary antibody. Next, the corneal fragment was immersed in a mixture of a secondary antibody solution and DAPI solution (Dojindo Laboratories) and reacted for 1 hour at room temperature away from light. 1:2000 diluent of Alexa Fluor® 488-labeled goat anti-rabbit IgG (Life Technologies) was used as the secondary antibody. 1:1000 diluent of DAPI solution was used. […]"}},
  "data": [
    {"smiles": "Cc1cccc(-c2[nH]c(CNc3ccccc3F)nc2-c2ccc3ncnn3c2)n1", "note": "[EW-7197, N-((4-([1,2,4]triazolo[1,5-a]pyridin-6-yl)-5-(6-methylpyridin-2-yl)-1H-imidazol-2-yl)methyl)-2-fluoroaniline]", "values": [
      {"measurement": "effect of suppressing corneal endothelial cell disorder", "setting": "[1]; compound at 3 μM and 10 μM", "value": "confirmed"},
      {"measurement": "effect of suppressing corneal endothelial cell disorder", "setting": "[1]; compound at 0.1, 0.3, and 1 μM", "value": "effectively suppressed"},
      {"measurement": "effect of suppressing corneal endothelial cell disorders", "setting": "[1]; compound at 3 μM and 10 μM", "value": "effectively suppressed"},
      {"measurement": "effect of suppressing corneal endothelial cell disorders", "setting": "[1]; compound at 0.03, 0.1, 0.3, and 1 μM", "value": "particularly excellent effect of suppressing corneal endothelial cell disorders"},
      {"measurement": "effect of suppressing corneal endothelial disorders", "setting": "[1]; summary statement, at a low concentration of 0.03 μM", "value": "very potent effect of suppressing corneal endothelial disorders"},
      {"measurement": "fibronectin expression", "setting": "fibronectin; 0.004% (0.1 mM) eye drop", "value": "tendency of suppressing fibronectin expression"},
      {"measurement": "fibronectin expression", "setting": "fibronectin; 0.02% eye drop, 12 weeks", "value": "clear suppression of fibronectin expression"},
      {"measurement": "fibronectin expression", "setting": "fibronectin; 0.1% eye drop, 12 weeks", "value": "clear suppression of fibronectin expression"}
    ]}
  ]
}
